Columns and labels:
Type in all cases: physicochemical
[1] = Stability of MPP suspensions of crystalline forms on storage (XRPD profile)
Method: To characterize the stability of the resulting crystalline forms of Compound 3, changes in XRPD profiles following long-term storage were determined. An MPP suspension comprising of crystalline Form A was stored at room temperature for 7 weeks, while a second MPP suspension also comprising of crystalline Form A was stored at room temperature for 7 weeks followed by an additional 1.5 weeks of agitation. […] To further test the potential for longer term storage, two additional MPP samples comprising of Form A, which were formulated at pH 5.8 and pH 7.4 by incorporating different buffers in the milling slurry, were stored at room temperature for 8 months and then analyzed by XRPD.
To confirm long-term stability, an MPP suspension of crystalline Form B was stored for 7 weeks at room temperature and then was characterized by XRPD. The results of that analysis are shown in FIG. 5, which provides the XRPD pattern of the original crystalline Form B material in the bottom trace and the XRPD pattern of the material after seven weeks of storage in the top trace.

[2] = Competition between crystalline Forms A and B in mixed nanoparticle suspensions (XRPD); conditions: competition with crystalline Form A
Method: A suspension of nanoparticles of crystalline Form A was generated as described via wet milling the amorphous material. A suspension of nanoparticles of Form B was generated via wet milling of neat Form B crystals as described. The two suspensions were mixed in 1:1 ratio and incubated at room temperature. After 11 days, an XRPD analysis was performed, which estimated that the ratio of Forms A and B was unchanged in the mixture (not shown). A fraction of the mixture was then stirred using a magnetic stir bar to provide an increased energy input in order to accelerate the outcome of the competition experiment.

[3] = Crystal form stability during wet-milling (XRPD); conditions: 5% in 5% F127/DPBS, wet-milled 2 days
Method: In accordance to Example 3, mucus-penetrating particles comprising of Crystalline Form B was prepared by wet-milling neat Crystalline Form B. A slurry containing 5% neat crystalline From B of Compound 3 and 5% F127 in DPBS (Dulbecco's Phosphate Buffered Saline) was added to an equal bulk volume of 1-mm ceria-stabilized zirconium oxide beads in a glass vial (e.g. 0.5 mL of slurry for 0.5 mL of beads). A magnetic stir bar was used to agitate the beads, stirring at approximately 500 rpm. The sample was milled for 2 days. Nanoparticles which were approximately 200 nm in diameter (z-averaged), as measured by DLS, were generated.

Compound | shelf stable as suspensions (XRPD profile of crystalline Form A retained) ([1]; MPP samples formulated at pH 5.8 and pH 7.4, room temperature) | shelf stable in solution (XRPD profile of crystalline Form A retained) ([1]; MPP suspension, room temperature, second sample with additional 1.5 weeks of agitation) | relative stability under the current formulation conditions [2] | physical stability during storage (XRPD pattern) ([1]; MPP suspension stored 7 weeks at room temperature) | crystal form stability during milling (XRPD) [3]
COc1cc2c(Oc3ccc4[nH]c(C)cc4c3F)ncnc2cc1OCCCN1CCC2(CC1)COC2 [crystalline Form A, 7-(3-(4-(4-fluoro-2-methyl-1H-indol-5-yloxy)-6-methoxyquinazolin-7-yloxy)propyl)-2-oxa-7-azaspiro[3.5] nonane] | at least 8 months | at least 7 weeks | – | – | –
COc1cc2c(Oc3ccc4[nH]c(C)cc4c3F)ncnc2cc1OCCCN1CCC2(CC1)COC2 [crystalline Form B, 7-(3-(4-(4-fluoro-2-methyl-1H-indol-5-yloxy)-6-methoxyquinazolin-7-yloxy)propyl)-2-oxa-7-azaspiro[3.5]nonane] | – | – | more stable | physically stable during storage | remained stable during milling
